The subject of assay [1] is picolinic acid treated mice. As to the kind of experiment: anti-depressant (CNS stimulant) activity: restoration of anti-convulsant action of methazolamide in picolinic acid treated mice. Conditions: multiple of the control AD activity of TRH, which has the value 1, in vivo. Here is the method:
(§1) The tripeptides of the present invention are found to have anti-depressant activity and thyrotropin releasing hormone activity. Their activity as anti-depressants is as central nervous system (CNS) stimulants and was determined by testing representative tripeptides of the present invention using in vivo assay based on restoration of anti-convulsant action of methazolamide in picolinic acid treated mice. The thyrotropin releasing hormone activity of the present tripeptides was determined using the in vivo assay substantially as described in "Vitamins and Hormone" R.S. Harris et al, 29, 3-4 (1971).
(§2) The following table contains activity data for a number of representative peptides of the present invention. The protocols used to obtain the data were those described above. The results are expressed numerically as multiples of the TS (thyrotropin stimulation) and AD (anti-depressant) activity compared to the control TS and AD activities of TRH which have the value 1. The designation S.N. is used to indicate substantially no detectable activity at the dosage level tested.

Another assay has as its system thyrotropin release. The assay is described as follows: thyrotropin releasing hormone activity (TS, thyrotropin stimulation), in vivo assay. Conditions: multiple of the control TS activity of TRH, which has the value 1. Here is the method: as §1, §2

Structures are written as SMILES.

Consider `NC(=O)[C@@H]1CCCN1C(=O)[C@H](Cc1c[nH]cn1)NC(=O)[C@@H]1CCC(=O)N1` [TRH, L-pyroglutamyl-L-histidyl-L-proline amide], for which the “AD (anti-depressant) activity” value in assay [1] was 1. Further, the “TS (thyrotropin stimulation) activity” value in the assay on thyrotropin release is 1.

The record behind these values is patent US3959248A, “Analogs of thyrotropin-releasing hormone” (Merck & Co., Inc., priority 1975, dated 1976).
